Entries after “also recorded” stand apart in the source; their conditions may differ. Where two headings read alike, the source gives them in different places. Marks after values point to notes of the source that are not given here.
Assays:
TgCRND8 mice [1] = details: mouse, in vivo
Procedure: Mice. […] This initial dosage was chosen based upon the dosage of myo-cyclohexanehexol (6-18 grams/day/adult or 86-257 mg/Kg/day) that is typically administered to human patients for various psychiatric disorders. […] A cohort of animals (n=10 mice per treatment arm) entered the study at five months of age, and outcomes were then analyzed after one month of treatment. The body weight, coat characteristics and in cage behaviour were monitored. Mannitol was used as a negative control for potential alterations in caloric intake. All experiments were performed according to the Canadian Council on Animal Care guidelines. Behavioural tests: Morris Water Maze testing was performed as previously described. […] Duration of walking, pausing and grooming were analyzed as indices of spontaneous locomotor activity. […] Latency to fall was recorded in four daily trials, conducted at 30 min intervals. […] Amyloid plaque burden was assessed with LecoIA-3001 image analysis software interfaced with Leica microscope and Hitachi KP-M1U CCD video camera. […] Vascular amyloid burden was defined as amyloid originating from or surrounding blood vessels and was analysed similarly. […] After neutralization, the samples were diluted and analyzed for Aβ40 and Aβ42 using commercially available kits (BIOSOURCE International). Each hemisphere was analyzed in triplicate and the mean values±SEM reported. […] Gliosis Quantitation. […]

cerebral amyloid plaques = assay: Cerebral amyloid burden (plaque number, area, size by immunohistochemistry); format: in vivo, mouse; details: TgCRND8 mice
Procedure: Mice. […] This initial dosage was chosen based upon the dosage of myo-cyclohexanehexol (6-18 grams/day/adult or 86-257 mg/Kg/day) that is typically administered to human patients for various psychiatric disorders. […] A cohort of animals (n=10 mice per treatment arm) entered the study at five months of age, and outcomes were then analyzed after one month of treatment. The body weight, coat characteristics and in cage behaviour were monitored. Mannitol was used as a negative control for potential alterations in caloric intake. All experiments were performed according to the Canadian Council on Animal Care guidelines. Behavioural tests: Morris Water Maze testing was performed as previously described. After non-spatial pre-training, mice underwent place discrimination training for 5 days with 4-trials per day, followed by a cued visible platform to rule out general motivational, learning deficits and motor problems, and a probe trial to evaluate memory. […] Open field test for motor activity was preformed as described previously. Duration of walking, pausing and grooming were analyzed as indices of spontaneous locomotor activity. Sensorimotor function was examined with an Economex™ accelerating rotarod (Columbus Instruments, Columbus, Ohio), as described elsewhere. The rod was set to accelerate at a rate of 0.2 r.p.m./s, from an initial, constant speed of 5 r.p.m. Latency to fall was recorded in four daily trials, conducted at 30 min intervals. All mice were trained for seven days before testing. The test day performance score for each animal was obtained by summing its latency to fall over the four trials Cerebral amyloid burden. Brains were removed and one hemisphere was fixed in 4% paraformaldehyde and embedded in paraffin wax in the mid sagittal plane. To generate sets of systematic uniform random sections, 5 μm serial sections were collected across the entire hemisphere. Sets of sections at 50 μm intervals were used for analyses (10-14 sections/set). Plaques were identified after antigen retrieval with formic acid, and incubation with primary anti-Aβ antibody (Dako M-0872), followed by secondary antibody (Dako StreptABCcomplex/horseradish kit). End products were visualized with DAB and were counter-stained with luxol fast blue. Amyloid plaque burden was assessed with LecoIA-3001 image analysis software interfaced with Leica microscope and Hitachi KP-M1U CCD video camera. Openlab imaging software (Improvision, Lexington, Mass.) was then used to convert micrographs to binary images for plaque number and plaque area determinations. Vascular amyloid burden was defined as amyloid originating from or surrounding blood vessels and was analysed similarly. Plasma and Cerebral Aβ Content. Hemi-brain samples were homogenized in a buffered sucrose solution, followed by either 0.4% diethylamine/100 mM NaCl for soluble Aβ levels or cold formic acid for the isolation of total Aβ. After neutralization, the samples were diluted and analyzed for Aβ40 and Aβ42 using commercially available kits (BIOSOURCE International). Each hemisphere was analyzed in triplicate and the mean values±SEM reported. Western blot analyses were performed on all fractions using urea gels for Aβ species analyses. Aβ was detected using 6E10 (BIOSOURCE International) and Enhanced Chemiluminenscence (Amersham). Gliosis Quantitation. Five randomly selected, evenly spaced, sagittal sections were collected from paraformaldehyde-fixed and frozen hemispheres of treated and control mice. Sections were immunolabelled for astrocytes with anti-rat GFAP IgG2, (Dako; diluted 1:50) and for microglia with anti-rat CD68 IgG2b (Dako; 1:50).

Aβ oligomers [2] = format: in vivo; details: rat
Chain of Aβ oligomers (P05067 672-711 limits assumed): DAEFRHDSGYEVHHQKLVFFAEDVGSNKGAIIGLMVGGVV
Excerpt: The Aβ oligomers are naturally produced by cells transfected with genes that over-produce the amyloid precursor protein (APP). APP is cleaved by secretase(s) and the cells construct the oligomeric Aβ into molecules ranging from 2 to 12 amyloid proteins (2 mer to 12 mer) and secrete it into the culture medium (CM) of cultured cells. In addition, oligomeric Aβ is extracted from brain homogenate taken from transgenic mice (Tg2576) transfected with the Swedish APP mutation. […] These purified oligomeric forms of Aβ, at physiological concentrations relevant to those found in AD, are injected into the rat's lateral ventricle through an indwelling cannula while the animals are awake and moving. Two hours after injection the rats are tested under sensitive cognitive assay.
The assay, the Alternating Lever Cyclic Ratio (ALCR) test, has proven to be much more sensitive than previously published methods for measuring drug effects on cognitive function. In this task, rats must learn a complex sequence of lever-pressing requirements in order to earn food reinforcement in a two-lever experimental chamber. Subjects must alternate between two levers by switching to the other lever after pressing the first lever enough to get food reward. The exact number of presses required for each food reward changes, first increasing from 2 responses per food pellet up to 56 presses per food pellet, then decreasing back to 2 responses per pellet. Intermediate values are based on the quadratic function, x^2−x. One cycle is an entire ascending and descending sequence of these lever press requirements (e.g., 2, 6, 12, 20, 30, 42, 56, 56, 42, 30, 20, 12, 6, and 2 presses per food reward). Six such full cycles are presented during each daily session.
Oligomeric Aβ: Prepared from transfected Chinese Hamster Ovary Cells (7PA2 cells). These cells secrete oligomeric Aβ into the culture medium (CM) at physiological levels. Aβ oligomers was also derived from Tg2576 mouse brain and purified by size exclusion chromatography. Samples of oligomeric Aβ were characterized by Western Blot Analysis. Appropriate control compounds were produced and tested for each active Aβ oligomeric configuration. Rats: Forty (40) rats were trained under ALCR for approximately 3 months until their error rates are stable. Training sessions were conducted 5 days each week. Surgery: After training, all rats received a single 28 ga. cannula that was permanently affixed to the skull, and aimed at the lateral ventricle (divided equally between left and right). Rats were allowed 5 days to recover from surgery. Administration: In vivo administration of AZD103 to rats was performed by dissolving AZD103 into drinking water. Different concentrations were prepared, and the average daily water intake used to target specific average daily dose levels. These dose levels were therefore approximate. Testing: AZD 103 was tested against Aβ oligomers known to disrupt cognitive function. Two general procedures were incorporated. • 1. AZD 103 was incubated with the injectate medium containing Aβ oligomers prior to assessing it's affect on ALCR. Appropriate control injections were included un-incubated (untreated) Aβ oligomers as well as AZD 103 were injected ICV. • 2. Rats were treated with AZD 103, administered in drinking water, for at least 3-4 days prior to testing ICV injection of Aβ oligomers preparations known to affect cognitive function under ALCR.
Treatments were assessed in the following order: • 1. ICV 7PA2 CM alone • 2. ICV AZD 103 alone • 3. ICV ex vivo incubated 7PA2 CM with AZD 103 • All rats received treatments 1-3 in randomized order. • 4. ICV 7PA2 CM after 4 days treatment with PO AZD103 30 mg/kg/day. • 5. ICV 7PA2 CM after 4 days treatment with PO AZD103 100 mg/kg/day. • 6. ICV 7PA2 CM after 4 days treatment with PO AZD103 300 mg/kg/day. • 7. ICV 7PA2 CM after 4 days with no treatment. […]

Aβ42 = molecular target: T1, Aβ42 (Homo sapiens, UniProt P05067); assay: Plasma Aβ42 levels in TgCRND8 mice; format: in vivo, mouse; details: TgCRND8 mice following 28 days of therapy at five months of age
T1 construct: from tissue; host or cells: hemi-brain homogenate of TgCRND8 transgenic mice
T1 sequence (P05067 672-713 limits assumed): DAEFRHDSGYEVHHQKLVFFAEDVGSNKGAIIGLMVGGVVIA

7PA2 cells = format: cell-based, Chinese Hamster
Procedure: (§1) Preparation of conditioned media: CHO— or 7PA2 cells were grown to ˜90% confluency. The cells were washed 1× in serum-free DMEM, then incubated overnight (˜15 hrs) in 4 ml/10 cm dish in serum-free DMEM, pen/strep, 1-glutamine with/without AZD-103. The following day, the conditioned media (CM) was collected, spun at 1000×g and treated with complete protease inhibitors (in mg/ml 1 leupeptin, 1 pepstatin, 0.1 aprotinin, 40 EDTA, and 2 mM 1/10 phenantroline) for biochemistry experiments or cell culture compatible protease inhibitors (Sigma P1860 1:1000) for electrophysiology experiments. The CM was stored at −80° C. until sufficient volumes were collected to complete a “batch”—typically ˜300 ml. […] The resulting concentrate was pooled, aliquoted in 1 ml fractions, and stored at −80° C. […] Therefore, for any given set of experiments (i.e. dose response curve, time curve, etc), a single batch is prepared and compared to 7PA2 alone within that batch.

Aβ oligomers [3] = assay: IP/Western blot of Aβ oligomers in 7PA2 conditioned media; format: cell-based, human
Procedure: as §1
IP/Western blots: 8 ml of 7PA2 CM were precleared with […] of protein A agarose for 30 min. The beads were spun down, and […] of the polyclonal anti-Aβ antibody R1282 was added to the supernatant with an additional 40 μl of protein A agarose. These samples were nutated at 4° C. overnight. The beads were washed with a series of buffers 0.5 STEN (sodium chloride, tris, EDTA, NP-40), SDS STEN, STEN. 2× tricine sample buffer was added to the washed beads, which were then boiled, centrifuged, and the resulting supernatant loaded onto 10-20% tricine gels. The proteins were then transferred to nitrocellulose, and probed with the anti-Aβ antibody 6E10.

synaptophysin = assay: Synaptophysin quantification in CA1 region of the hippocampus; format: in vivo, mouse; details: TgCRND8 mice; for increase of synaptophysin reactive boutons and cell bodies: vs untreated
Procedure: Synaptophysin immunohistochemical staining was performed on 3 evenly spaced saggital sections of paraformaldehyde-fixed treated and control mice. Sections were immunolabelled for synaptophysin with anti-synaptophysin IgG (1:40; Roche, Laval, PQ). Digital images were captured and analyzed as described above. Within each section, three randomly chosen 100 μm^2 areas of the CA1 region of the hippocampus were counted for synaptophysin reactive cell bodies and boutons. The results are expressed as the mean of the number of reactive bodies and boutons per 100 μm^2 [48, 49].

Aβ oligomers [4] = details: rat, in vivo
TgCRND8 mice [5] = assay: Morris Water Maze spatial reference memory test in TgCRND8 mice; format: in vivo, mouse; details: for Spatial learning performance (Morris Water Maze) compared to untreated TgCRND8 littermates: oral treatment for 28 days from 5 months of age, tested at 6 months
[6] = 28 day course at 5 months of age, vs untreated
[7] = 28 days treatment, 6 months of age
[8] = ICV AZD103 alone, % of baseline errors
[9] = ICV Aβ oligomers incubated ex vivo with AZD103, % of baseline errors
[10] = ICV oligomers after 4 days p.o. 30 mg/kg/day in drinking water
[11] = ICV oligomers after 4 days p.o. 100 mg/kg/day in drinking water
[12] = ICV oligomers after 4 days p.o. 300 mg/kg/day in drinking water
[13] = 1.25 μM applied to 7PA2 CM (post-cond)

## 1,3,5/2,4,6-(scyllo-) cyclohexanehexol [Scyllo-cyclohexanehexol]
TgCRND8 mice [1]
  grooming or activity in the open field test: no effect on grooming or activity
  sensorimotor function (Rotarod), treated vs untreated TgCRND8 mice: no difference
Cerebral amyloid plaques; [6]
  percent area of the brain covered by plaques, reduction: 14±0.5%
  plaque number reduction: 13±0.3%
  plaque size reduction: 16±0.4%
Cerebral amyloid plaques; [7]
  Mean Plaque Size: 336 ± 6* μm^2
  Total Plaque Area: 420027 ± 14986* μm^2
  Total Plaque Count: 1260 ± 27
Aβ oligomers [2]; ICV AZD103 alone
  performance in ALCR when administered without oligomers: no impact on performance
Aβ oligomers [2]; [8]
  Perseveration % errors: 99%
  Switching % errors: 99%
Aβ oligomers [2]; [9]
  Perseveration % errors: 100%
  Switching % errors: 95%
Aβ oligomers [2]; [10]
  Perseveration % errors: 120%
  Switching % errors: 109%
Aβ oligomers [2]; [11]
  Perseveration % errors: 120%
  Switching % errors: 100%
Aβ oligomers [2]; [12]
  Perseveration % errors: 99%
  Switching % errors: 109%
Aβ42
  Plasma Aβ42 levels: 990 ± 73 pg/mL
7PA2 cells
  toxicity (7PA2 cells, APPs expression, LTP in CHO— conditions): No direct evidence of AZD-103 toxicity was observed
Aβ oligomers [3]; [13]
  Aβ dimer on Western blots: unaffected
  Aβ trimer on Western blots: reduced the trimer
Aβ oligomers [3]; dose response, pre-cond and post-cond, all concentrations
  Aβ dimer and trimer levels measured absolutely and normalized to monomer: appeared to reduce dimer and trimer levels
synaptophysin; delayed treatment study
  number of synaptophysin reactive boutons and cell bodies in the CA1 region: 2625±124 /100 μm^2
  increase of synaptophysin reactive boutons and cell bodies: 150%
synaptophysin; prophylactic study group
  number of synaptophysin reactive boutons and cell bodies in the CA1 region: 2384±232 /100 μm^2
  increase of synaptophysin reactive boutons and cell bodies: 148%
Aβ oligomers [4]
  brain penetrance following oral dosing: sufficiently brain penetrant
TgCRND8 mice [5]; TgCRND8 mice, administered for 2 months, ending at 7 months of age
  effects on cognition and pathology: Sustained effects both on cognition and pathology were observed
TgCRND8 mice [5]; TgCRND8 mice
  Spatial learning performance (Morris Water Maze) compared to untreated TgCRND8 littermates: significantly better behavioural performance compared to untreated TgCRND8 mice; also recorded: significantly better than untreated TgCRND8 littermates
TgCRND8 mice [5]; separate cohort of TgCRND8 mice, data not shown
  % time in target quadrant (probe trial, alternate measure): not statistically different from non-Tg littermates

## OC1C(O)C(O)C(O)C(O)C1O (stereo not drawn) [Epi-cyclohexanehexol, 1,2,3,4,5/6-(epi-) cyclohexanehexol, reference compound]
TgCRND8 mice [5]; TgCRND8 mice
  Spatial learning performance (Morris Water Maze) compared to untreated TgCRND8 littermates: not significantly different from that of untreated TgCRND8 littermates

From patent US20090062403A1, “Compositions and Methods for Treatment of Disorders of Protein Aggregation” (priority 2004, published 2009)
